In patent US20230210831A1, “CHRONIC KIDNEY DISEASE TREATMENT OR PREVENTION METHOD” (Japan Tobacco Inc., priority 2019, published 2023):
Several values for one entry are separate records, joined by “and”; a condition that tells them apart may be missing. Equal values may be shown once.

What was measured:
Type in all cases: cell-based
[1] = system: Salmonella typhimurium TA1537; test: Ames test (reverse mutation test), TA1537; conditions: for Number of revertant colonies TA1537: S9 Mix -
Method: (§1) The solvent used herein was dimethyl sulfoxide (DMSO, 100 µL/plate).
(§2) The mixtures were preincubated at 37° C. for 20 minutes while shaking. […] Two plates per treatment were used.

[2] = system: Salmonella typhimurium TA98; test: Ames test (reverse mutation test), TA98; conditions: for potential to induce reverse mutations: TA98 with S9 mix; for Number of revertant colonies TA98: S9 Mix -
Method: as §1, §2

[3] = system: Salmonella typhimurium TA100; test: Ames test (reverse mutation test), TA100; conditions: for Number of revertant colonies TA100: S9 Mix -
Method: as §1, §2

[4] = system: Salmonella typhimurium TA1535; test: Ames test (reverse mutation test), TA1535
Method: as §1, §2

Escherichia coli WP2uvrA = test: Ames test (reverse mutation test), WP2uvrA; conditions: for Number of revertant colonies: WP2uvrA; for Number of revertant colonies WP2uvrA: S9 Mix -
Method: as §1, §2

## COc1ccc2nc3cc(Cl)ccc3c(NCCCNCCCl)c2c1 [ICR-191]
[1]; dose 1.0 µg/plate, positive control
  Number of revertant colonies TA1537: 1448 and 1435 and 1413 and 1096 and 1397
[1]; TA1537, -S9 mix, 1.0 µg/plate (positive control)
  Number of revertant colonies: 1170 and 1131

## CC(C)(C)Oc1cccc(-c2cc(N)nn2-c2ccccc2)c1 [Metabolite C]
[2]; TA98, +S9 mix, 2.34 µg/plate
  Number of revertant colonies: 38
[2]; TA98, +S9 mix, 4.69 µg/plate
  Number of revertant colonies: 36
[2]; TA98, +S9 mix, 9.38 µg/plate
  Number of revertant colonies: 73
[2]; TA98, +S9 mix, 18.8 µg/plate
  Number of revertant colonies: 107
[2]; TA98, +S9 mix, 37.5 µg/plate
  Number of revertant colonies: 133
[2]; TA98, +S9 mix, 75 µg/plate
  Number of revertant colonies: 153
[2]; TA98, +S9 mix, 150 µg/plate
  Number of revertant colonies: 133
[2]; TA98, +S9 mix, 300 µg/plate
  Number of revertant colonies: 138
[2]; TA98, -S9 mix, 2.3 µg/plate
  Number of revertant colonies: 14
[2]; TA98, -S9 mix, 6.9 µg/plate
  Number of revertant colonies: 15
[2]; TA98, -S9 mix, 21 µg/plate
  Number of revertant colonies: 17
[2]; TA98, -S9 mix, 62 µg/plate
  Number of revertant colonies: 8
[2]; TA98, -S9 mix, 185 µg/plate
  Number of revertant colonies: 8
[2]; TA98, -S9 mix, 556 µg/plate
  Number of revertant colonies: 8
[2]; TA98, -S9 mix, 1667 µg/plate
  Number of revertant colonies: 8
[2]; TA98, -S9 mix, 5000 µg/plate
  Number of revertant colonies: 0
[2]
  potential to induce reverse mutations: showed potential to induce reverse mutations
[1]; TA1537, +S9 mix, 2.3 µg/plate
  Number of revertant colonies: 6
[1]; TA1537, +S9 mix, 6.9 µg/plate
  Number of revertant colonies: 7
[1]; TA1537, +S9 mix, 21 µg/plate
  Number of revertant colonies: 7
[1]; TA1537, +S9 mix, 62 µg/plate
  Number of revertant colonies: 9
[1]; TA1537, +S9 mix, 185 µg/plate
  Number of revertant colonies: 9
[1]; TA1537, +S9 mix, 556 µg/plate
  Number of revertant colonies: 4
[1]; TA1537, +S9 mix, 1667 µg/plate
  Number of revertant colonies: 4
[1]; TA1537, +S9 mix, 5000 µg/plate
  Number of revertant colonies: 5
[1]; TA1537, -S9 mix, 2.3 µg/plate
  Number of revertant colonies: 3
[1]; TA1537, -S9 mix, 6.9 µg/plate
  Number of revertant colonies: 1
[1]; TA1537, -S9 mix, 21 µg/plate
  Number of revertant colonies: 3
[1]; TA1537, -S9 mix, 62 µg/plate
  Number of revertant colonies: 3
[1]; TA1537, -S9 mix, 185 µg/plate
  Number of revertant colonies: 2
[1]; TA1537, -S9 mix, 556 µg/plate
  Number of revertant colonies: 0
[1]; TA1537, -S9 mix, 1667 µg/plate
  Number of revertant colonies: 0
[1]; TA1537, -S9 mix, 5000 µg/plate
  Number of revertant colonies: 0
[3]; TA100, +S9 mix, 2.34 µg/plate
  Number of revertant colonies: 526
[3]; TA100, +S9 mix, 4.69 µg/plate
  Number of revertant colonies: 778
[3]; TA100, +S9 mix, 9.38 µg/plate
  Number of revertant colonies: 1210
[3]; TA100, +S9 mix, 18.8 µg/plate
  Number of revertant colonies: 1745
[3]; TA100, +S9 mix, 37.5 µg/plate
  Number of revertant colonies: 2049
[3]; TA100, +S9 mix, 75 µg/plate
  Number of revertant colonies: 2147
[3]; TA100, +S9 mix, 150 µg/plate
  Number of revertant colonies: 2043
[3]; TA100, +S9 mix, 300 µg/plate
  Number of revertant colonies: 1412
[3]; TA100, -S9 mix, 2.3 µg/plate
  Number of revertant colonies: 87
[3]; TA100, -S9 mix, 6.9 µg/plate
  Number of revertant colonies: 99
[3]; TA100, -S9 mix, 21 µg/plate
  Number of revertant colonies: 48
[3]; TA100, -S9 mix, 62 µg/plate
  Number of revertant colonies: 41
[3]; TA100, -S9 mix, 185 µg/plate
  Number of revertant colonies: 45
[3]; TA100, -S9 mix, 556 µg/plate
  Number of revertant colonies: 33
[3]; TA100, -S9 mix, 1667 µg/plate
  Number of revertant colonies: 25
[3]; TA100, -S9 mix, 5000 µg/plate
  Number of revertant colonies: 35
[3]; TA100 with S9 mix
  potential to induce reverse mutations: showed potential to induce reverse mutations
[4]; TA1535, +S9 mix, 2.3 µg/plate
  Number of revertant colonies: 8
[4]; TA1535, +S9 mix, 6.9 µg/plate
  Number of revertant colonies: 8
[4]; TA1535, +S9 mix, 21 µg/plate
  Number of revertant colonies: 5
[4]; TA1535, +S9 mix, 62 µg/plate
  Number of revertant colonies: 4
[4]; TA1535, +S9 mix, 185 µg/plate
  Number of revertant colonies: 5
[4]; TA1535, +S9 mix, 556 µg/plate
  Number of revertant colonies: 4
[4]; TA1535, +S9 mix, 1667 µg/plate
  Number of revertant colonies: 5
[4]; TA1535, +S9 mix, 5000 µg/plate
  Number of revertant colonies: 4
[4]; TA1535, -S9 mix, 21 µg/plate
  Number of revertant colonies: 6
[4]; TA1535, -S9 mix, 556 µg/plate
  Number of revertant colonies: 0
Escherichia coli WP2uvrA; +S9 mix, 2.3 µg/plate
  Number of revertant colonies: 28
Escherichia coli WP2uvrA; +S9 mix, 6.9 µg/plate
  Number of revertant colonies: 23
Escherichia coli WP2uvrA; +S9 mix, 21 µg/plate
  Number of revertant colonies: 21
Escherichia coli WP2uvrA; +S9 mix, 62 µg/plate
  Number of revertant colonies: 26
Escherichia coli WP2uvrA; +S9 mix, 185 µg/plate
  Number of revertant colonies: 17
Escherichia coli WP2uvrA; +S9 mix, 556 µg/plate
  Number of revertant colonies: 8
Escherichia coli WP2uvrA; +S9 mix, 1667 µg/plate
  Number of revertant colonies: 12
Escherichia coli WP2uvrA; +S9 mix, 5000 µg/plate
  Number of revertant colonies: 16
Escherichia coli WP2uvrA; -S9 mix, 2.3 µg/plate
  Number of revertant colonies: 15
Escherichia coli WP2uvrA; -S9 mix, 6.9 µg/plate
  Number of revertant colonies: 16
Escherichia coli WP2uvrA; -S9 mix, 21 µg/plate
  Number of revertant colonies: 17
Escherichia coli WP2uvrA; -S9 mix, 62 µg/plate
  Number of revertant colonies: 13
Escherichia coli WP2uvrA; -S9 mix, 185 µg/plate
  Number of revertant colonies: 13
Escherichia coli WP2uvrA; -S9 mix, 556 µg/plate
  Number of revertant colonies: 13
Escherichia coli WP2uvrA; -S9 mix, 1667 µg/plate
  Number of revertant colonies: 10
Escherichia coli WP2uvrA; -S9 mix, 5000 µg/plate
  Number of revertant colonies: 11

## CC(C)(OCc1cc(F)cc(-c2cc(N)nn2-c2ccc(F)cc2)c1)C(F)(F)F [Metabolite D]
[2]; dose 2.3 µg/plate
  Number of revertant colonies TA98: 27
[2]; dose 6.9 µg/plate
  Number of revertant colonies TA98: 22
[2]; dose 21 µg/plate
  Number of revertant colonies TA98: 23
[2]; dose 62 µg/plate
  Number of revertant colonies TA98: 25
[2]; dose 185 µg/plate
  Number of revertant colonies TA98: 32
[2]; dose 556 µg/plate
  Number of revertant colonies TA98: 21
[2]; dose 1667 µg/plate
  Number of revertant colonies TA98: 23
[2]; dose 5000 µg/plate
  Number of revertant colonies TA98: 21
[2]; TA98, +S9 mix, 2.3 µg/plate
  Number of revertant colonies: 39
[2]; TA98, +S9 mix, 6.9 µg/plate
  Number of revertant colonies: 42
[2]; TA98, +S9 mix, 21 µg/plate
  Number of revertant colonies: 52
[2]; TA98, +S9 mix, 62 µg/plate
  Number of revertant colonies: 47
[2]; TA98, +S9 mix, 185 µg/plate
  Number of revertant colonies: 49
[2]; TA98, +S9 mix, 556 µg/plate
  Number of revertant colonies: 51
[2]; TA98, +S9 mix, 1667 µg/plate
  Number of revertant colonies: 57
[2]; TA98, +S9 mix, 5000 µg/plate
  Number of revertant colonies: 88
[2]
  potential to induce reverse mutations: showed potential to induce reverse mutations
[1]; dose 2.3 µg/plate
  Number of revertant colonies TA1537: 11
[1]; dose 6.9 µg/plate
  Number of revertant colonies TA1537: 13
[1]; dose 21 µg/plate
  Number of revertant colonies TA1537: 11
[1]; dose 62 µg/plate
  Number of revertant colonies TA1537: 7
[1]; dose 185 µg/plate
  Number of revertant colonies TA1537: 6
[1]; dose 556 µg/plate
  Number of revertant colonies TA1537: 7
[1]; dose 1667 µg/plate
  Number of revertant colonies TA1537: 6
[1]; dose 5000 µg/plate
  Number of revertant colonies TA1537: 8
[1]; TA1537, +S9 mix, 2.3 µg/plate
  Number of revertant colonies: 14
[1]; TA1537, +S9 mix, 6.9 µg/plate
  Number of revertant colonies: 20
[1]; TA1537, +S9 mix, 21 µg/plate
  Number of revertant colonies: 13
[1]; TA1537, +S9 mix, 62 µg/plate
  Number of revertant colonies: 18
[1]; TA1537, +S9 mix, 185 µg/plate
  Number of revertant colonies: 15
[1]; TA1537, +S9 mix, 556 µg/plate
  Number of revertant colonies: 15
[1]; TA1537, +S9 mix, 1667 µg/plate
  Number of revertant colonies: 19
[1]; TA1537, +S9 mix, 5000 µg/plate
  Number of revertant colonies: 24
[1]; TA1537 with S9 mix
  potential to induce reverse mutations: showed potential to induce reverse mutations
[3]; dose 2.3 µg/plate
  Number of revertant colonies TA100: 99
[3]; dose 6.9 µg/plate
  Number of revertant colonies TA100: 98
[3]; dose 21 µg/plate
  Number of revertant colonies TA100: 71
[3]; dose 62 µg/plate
  Number of revertant colonies TA100: 96
[3]; dose 185 µg/plate
  Number of revertant colonies TA100: 85
[3]; dose 556 µg/plate
  Number of revertant colonies TA100: 86
[3]; dose 1667 µg/plate
  Number of revertant colonies TA100: 69
[3]; dose 5000 µg/plate
  Number of revertant colonies TA100: 82
[3]; TA100, +S9 mix, 2.3 µg/plate
  Number of revertant colonies: 139
[3]; TA100, +S9 mix, 6.9 µg/plate
  Number of revertant colonies: 203
[3]; TA100, +S9 mix, 21 µg/plate
  Number of revertant colonies: 237
[3]; TA100, +S9 mix, 62 µg/plate
  Number of revertant colonies: 185
[3]; TA100, +S9 mix, 185 µg/plate
  Number of revertant colonies: 151
[3]; TA100, +S9 mix, 556 µg/plate
  Number of revertant colonies: 119
[3]; TA100, +S9 mix, 1667 µg/plate
  Number of revertant colonies: 100
[3]; TA100, +S9 mix, 5000 µg/plate
  Number of revertant colonies: 98
[4]; S9 Mix -, dose 1667 µg/plate
  Number of revertant colonies TA1535: 6
[4]; TA1535, +S9 mix, 1667 µg/plate
  Number of revertant colonies: 7
Escherichia coli WP2uvrA; dose 2.3 µg/plate
  Number of revertant colonies WP2uvrA: 25
Escherichia coli WP2uvrA; dose 6.9 µg/plate
  Number of revertant colonies WP2uvrA: 27
Escherichia coli WP2uvrA; dose 21 µg/plate
  Number of revertant colonies WP2uvrA: 22
Escherichia coli WP2uvrA; dose 62 µg/plate
  Number of revertant colonies WP2uvrA: 21
Escherichia coli WP2uvrA; dose 185 µg/plate
  Number of revertant colonies WP2uvrA: 22
Escherichia coli WP2uvrA; dose 556 µg/plate
  Number of revertant colonies WP2uvrA: 16
Escherichia coli WP2uvrA; dose 1667 µg/plate
  Number of revertant colonies WP2uvrA: 18
Escherichia coli WP2uvrA; dose 5000 µg/plate
  Number of revertant colonies WP2uvrA: 20
Escherichia coli WP2uvrA; +S9 mix, 2.3 µg/plate
  Number of revertant colonies: 31
Escherichia coli WP2uvrA; +S9 mix, 6.9 µg/plate
  Number of revertant colonies: 18
Escherichia coli WP2uvrA; +S9 mix, 21 µg/plate
  Number of revertant colonies: 24
Escherichia coli WP2uvrA; +S9 mix, 62 µg/plate
  Number of revertant colonies: 18
Escherichia coli WP2uvrA; +S9 mix, 185 µg/plate
  Number of revertant colonies: 23
Escherichia coli WP2uvrA; +S9 mix, 556 µg/plate
  Number of revertant colonies: 32
Escherichia coli WP2uvrA; +S9 mix, 1667 µg/plate
  Number of revertant colonies: 28
Escherichia coli WP2uvrA; +S9 mix, 5000 µg/plate
  Number of revertant colonies: 28

## [N-]=[N+]=[N-].[Na+] [SA]
[4]; TA1535, -S9 mix, 0.5 µg/plate (positive control)
  Number of revertant colonies: 217 and 222
